Data on 94 compounds can be found in ChEMBL document CHEMBL3507680, “University of Dundee, Gates Library screen for HepG2 cell viability”.

The data set in a line: Human HepG2 cell viability assay in 384 well format. The class given is toxicity, cell-based. Also on record: dose 125 nL, time 70.5 hour; cytotoxicity at 70.5 h: concentration not given beside the values. The conditions noted are these: HepG2 cells, read-out: Inhibition.
As for `Cc1c(C(=O)NCCC(=O)N2CCOCC2)oc2c(C)cccc12`, the cytotoxicity at 70.5 h was -12.9%.

With `COC(=O)CN(Cc1ccccc1C)C(=O)CCNC(=O)C(C)(C)C`, the cytotoxicity at 70.5 h is -6.72%.

With `CC(C)(C)C(O)CN1CCN(CC(=O)NCC(F)(F)F)CC1` (centres undefined), the cytotoxicity at 70.5 h amounted to 13.1%.

In the case of `CC(Nc1ccc(CC(=O)N(C)C)cc1)C(=O)N(C)CCC#N` (centres undefined), the cytotoxicity at 70.5 h is -12.3%.

Consider `CC(CO)(NC(=O)Nc1nncs1)C1CCCCC1` (centres undefined), for which the cytotoxicity at 70.5 h amounted to 2.4%.

Regarding `Cc1nncn1CCNC(=O)C(C)(C)c1cccc(C(F)(F)F)c1`, the cytotoxicity at 70.5 h was -9.3%.

Consider `Cc1nncn1CCNC(=O)C(C)(C)c1cccc(F)c1`, for which the cytotoxicity at 70.5 h is -7.47%.

For the compound `O=S(=O)(NCCc1c[nH]c2cc(F)ccc12)C1CCOC1` (centres undefined), the cytotoxicity at 70.5 h was 0.583%.

As for `CN1CCN(Cc2cccc(NCc3ncc[nH]3)c2)CC1`, the cytotoxicity at 70.5 h amounted to 8%.

Consider `Cc1cc(-c2nc(C3(NC(=O)OC(C)(C)C)CCC3)no2)on1`, for which the cytotoxicity at 70.5 h was -5.47%.

For `Cc1nncn1CCNC(=O)C(C)(C)c1cccc(Cl)c1`, the cytotoxicity at 70.5 h is -8.68%.

`CCc1nc2n(n1)CCCC2NC(=O)Nc1ccc(SC)c(F)c1` (centres undefined): the cytotoxicity at 70.5 h is -6.66%.

`CCN(C)CC1CCN(C(=O)Nc2ccc(-c3cc[nH]n3)cc2)C1` (centres undefined): the cytotoxicity at 70.5 h came out at 11.5%.

Consider `Fc1cccc(CCN(c2ccc3nnnn3n2)C2CC2)c1`, for which the cytotoxicity at 70.5 h is -17.4%.

On to `CC(C)COCC(NC(=O)Cc1ccn[nH]1)c1ccco1` (centres undefined), for which the cytotoxicity at 70.5 h is -6.61%.

Regarding `COc1cc2ccn(CCS(C)(=O)=O)c(=O)c2cc1F`, the cytotoxicity at 70.5 h is -2.4%.

In the case of `Cc1ncsc1CN1C[C@@H]2CN(S(C)(=O)=O)CCO[C@@H]2C1`, the cytotoxicity at 70.5 h was -7.53%.

Turning to `O=C(C1CCOC1)N1CCC2(CC1)Cc1ccccc1CNC2=O` (centres undefined), the cytotoxicity at 70.5 h is -9.03%.

`O=C1NCCO[C@H]2CN(C(=O)Cc3cccs3)CC[C@@H]12`: the cytotoxicity at 70.5 h is -7.13%.

Regarding `Cn1cc(-c2ncc3c(c2C(=O)O)CCN(CC2CCOC2)C3)cn1` (centres undefined), the cytotoxicity at 70.5 h is -3.12%.

For `Cc1ccc(NC(=O)N2CCC3(CCC(C(=O)N(C)C)O3)CC2)cc1` (centres undefined), the cytotoxicity at 70.5 h is -4.12%.

Consider `Cc1nc(-c2nc(C(=O)N(C)C)c3ccccn23)cn1C(C)C`, for which the cytotoxicity at 70.5 h is -8.88%.

Consider `Cc1nnc([C@@]23CCO[C@@H]2CCN(Cc2nccs2)C3)o1`, for which the cytotoxicity at 70.5 h was -9.1%.

`Cc1nc(-c2nc(C(=O)NC3CC3)c3ccccn23)cn1C(C)C`: the cytotoxicity at 70.5 h was -2.95%.

In the case of `CN(C)C(=O)C1CCC2(CCN(C(=O)Nc3cccc(F)c3)CC2)O1` (centres undefined), the cytotoxicity at 70.5 h is -5.9%.

On to `O=C(c1cccs1)N1CCC2(CC1)CCN(S(=O)(=O)C1CC1)CC2`, for which the cytotoxicity at 70.5 h was -11.7%.

For `CS(=O)(=O)N1CCC2(CCN(C(=O)c3cccs3)CC2)CC1`, the cytotoxicity at 70.5 h is -8.9%.

Turning to `CN(C)C(=O)C1CCC2(CCN(C(=O)Nc3ccccc3)CC2)O1` (centres undefined), the cytotoxicity at 70.5 h was -8%.

In the case of `Cc1cccc(NC(=O)N2CCC3(CCC(C(=O)N(C)C)O3)CC2)c1` (centres undefined), the cytotoxicity at 70.5 h was -11.4%.

As for `COC1COC2(CCN(S(=O)(=O)c3ccc(F)cc3)CC2)C1` (centres undefined), the cytotoxicity at 70.5 h was 17.1%.

In the case of `CN1CCC(CO[C@H]2CN(C(=O)c3cccn3C)[C@@H]3COC[C@H]23)CC1`, the cytotoxicity at 70.5 h was -11.6%.

For the compound `Cn1ccnc1C(=O)NC[C@H]1OC[C@@H]2CCN(S(C)(=O)=O)C[C@@H]21`, the cytotoxicity at 70.5 h came to 21.4%.

In the case of `CC(C)N1C(=O)C[C@H]2[C@@H]1CCN2C(=O)c1ccco1`, the cytotoxicity at 70.5 h worked out at 24.5%.

`Cc1ccsc1C(=O)N1CCc2ncc(Cn3cccn3)n2CC1`: the cytotoxicity at 70.5 h was -6.33%.

With `Cc1cccc(N2CC3(COCCN(c4ccncn4)C3)OCC2=O)c1` (centres undefined), the cytotoxicity at 70.5 h worked out at 0.341%.

`CC(=O)N1CCC2(CC1)C(=O)N(C)c1ccc(F)cc12`: the cytotoxicity at 70.5 h was -8.53%.

On to `O=C1COC2(COCCN(c3cnccn3)C2)CN1c1cccc(F)c1` (centres undefined), for which the cytotoxicity at 70.5 h was -6.69%.

Take `Cn1cc(CN2C[C@@H]3CCC[C@@H](OCc4cccnc4)[C@@H]3C2)cn1`: the cytotoxicity at 70.5 h was 3.45%.

For the compound `CN1C(=O)CC(c2ccccc2)C12CCN(c1ncc(F)cn1)CC2` (centres undefined), the cytotoxicity at 70.5 h was -1.24%.

`CC(=O)N1CCc2[nH]nc(C(=O)N3CC=CC3)c2C1`: the cytotoxicity at 70.5 h came to 34.9%.

Regarding `COC[C@@]12CCC[C@@H]1CN(C(=O)Cc1ccco1)C2`, the cytotoxicity at 70.5 h was -5.39%.

As for `Cc1cc(CN2CCC(C3CCN(CCc4ccccc4)C3)CC2)[nH]n1` (centres undefined), the cytotoxicity at 70.5 h was -0.374%.

As for `CCCn1nccc1C(=O)N1CCN(C(=O)C2CC2)[C@@H]2CS(=O)(=O)C[C@@H]21`, the cytotoxicity at 70.5 h was determined as 11.1%.

As for `CC(C)N(CCO)C(=O)C1CCC(=O)N(Cc2ccc(Cl)cc2)C1` (centres undefined), the cytotoxicity at 70.5 h was -4.75%.

For the compound `Cc1cccc(N2CCC3(CCCN3Cc3cn(C)nc3C)CC2)n1`, the cytotoxicity at 70.5 h is -9.08%.

As for `CN(C)C(C(=O)N1CCC(CCO)CC1)c1ccccc1F` (centres undefined), the cytotoxicity at 70.5 h came out at 8.83%.

As for `CNC(=O)c1cn2cc(-c3cccc(Cl)c3)n(CC3CC3)c(=O)c2n1`, the cytotoxicity at 70.5 h is -8.05%.

As to `CN(CC1(CO)CCOCC1)[C@@H]1c2ccccc2C2(CCNCC2)[C@H]1O`, the cytotoxicity at 70.5 h came out at 19%.

For `CC(C)N1CCCN(c2nc(-c3cccnc3)nc3c2cnn3C)CC1`, the cytotoxicity at 70.5 h was determined as 36.6%.

Regarding `Cc1noc(-c2ccnc(Oc3ccc(CN4CCCC4)cc3C)c2)n1`, the cytotoxicity at 70.5 h is -4.76%.

On to `COCCn1ccnc1CN1CCc2[nH]cnc2C1c1ccccn1` (centres undefined), for which the cytotoxicity at 70.5 h is -11.2%.

In the case of `Cc1ccc(NCCCNc2nccc(-c3cn(C)nc3C)n2)nc1`, the cytotoxicity at 70.5 h was determined as 13.9%.

As for `O=C1CCc2cc(NC(=O)N3CCCN(Cc4cccs4)CC3)ccc21`, the cytotoxicity at 70.5 h is -8.02%.

`CN1C(=O)C2(CCN(C(=O)c3ccccc3)CC2)c2cc(F)ccc21`: the cytotoxicity at 70.5 h is -7.93%.

For the compound `CN1CCC2(CC1)C(=O)N(C)c1ccc(F)cc12`, the cytotoxicity at 70.5 h stood at 27.9%.

As for `Cn1cnc2c(-c3cccnc3)nc(C3CCNCC3)cc21`, the cytotoxicity at 70.5 h worked out at 15.6%.

As to `Cc1ccc(CN2CCCC3(CCCN3S(C)(=O)=O)C2)s1` (centres undefined), the cytotoxicity at 70.5 h is -8%.

In the case of `Cc1cnc(N2CCc3cc(C(=O)O)c(N(C)C)nc3CC2)nc1`, the cytotoxicity at 70.5 h was -7.94%.

As to `Cc1noc([C@@]23CCO[C@@H]2CCN(Cc2scnc2C)C3)n1`, the cytotoxicity at 70.5 h is -13.1%.

Consider `Cc1ccsc1C(=O)N1CCC2(CC1)C(=O)N(C)CCN2CC1CC1`, for which the cytotoxicity at 70.5 h was -12.8%.

Take `CNC(=O)c1cc2c(nc1N(C)C)CCN(c1ncc(F)cn1)CC2`: the cytotoxicity at 70.5 h is -13.5%.

As to `COc1ccc(S(=O)(=O)N2CCN(C)c3ncccc3C2)cc1`, the cytotoxicity at 70.5 h is -5.97%.

With `COCCN1CCC12CCN(C(=O)c1ccc(C)nc1)C2` (centres undefined), the cytotoxicity at 70.5 h is -16.4%.

Regarding `CCOCc1nnc2n1CCN(Cc1c(C)noc1C)CC2`, the cytotoxicity at 70.5 h is 16.5%.

Regarding `Cc1cnc(N2CC3(CCN(S(=O)(=O)C4CC4)C3)C2)nc1`, the cytotoxicity at 70.5 h was -11.5%.

For the compound `Fc1cccc(-c2nnn3c2COCC(CNCc2nccs2)C3)c1` (centres undefined), the cytotoxicity at 70.5 h was -11.8%.

As for `Cc1nc(CO[C@H]2CN(C(=O)c3cccn3C)[C@@H]3COC[C@H]23)cs1`, the cytotoxicity at 70.5 h is -11.5%.

`CCN(C(=O)c1ccc2nnc(C3CCN(CCOC)C3)n2c1)C(C)C` (centres undefined): the cytotoxicity at 70.5 h was -13.6%.

Regarding `Cn1ccc(C(=O)N2C[C@@H]3CCN(c4cccnc4)C[C@@H]3C2)n1`, the cytotoxicity at 70.5 h was -4.89%.

Take `O=C([C@H]1COC[C@H]2CN(C3CCOCC3)C[C@H]21)N1CCC(F)CC1`: the cytotoxicity at 70.5 h is -8.13%.

With `c1csc(CNCC2COCc3c(-c4ccoc4)nnn3C2)n1` (centres undefined), the cytotoxicity at 70.5 h was -8.83%.

On to `O=C([C@@H]1CC[C@@H]2[C@@H](CCN2CCOCc2ccccc2)O1)N1CCCC1`, for which the cytotoxicity at 70.5 h was 13%.

With `COC[C@@]12CCO[C@@H]1CCN(Cc1sccc1C)C2`, the cytotoxicity at 70.5 h is -10.6%.

`O=C(c1cnccn1)N1C[C@@H]2CCN(c3cnccn3)C[C@@H]2C1`: the cytotoxicity at 70.5 h is -7.66%.

Turning to `Cc1ccsc1C(=O)N1CCc2ncc(CN(C)C)n2CC1`, the cytotoxicity at 70.5 h was -7.39%.

As for `Cc1cc(C(=O)N2CCc3ncc(CN4CCCC4)n3CC2)no1`, the cytotoxicity at 70.5 h was -11%.

In the case of `O=C(c1cscn1)N1CCc2ncc(CN3CCCC3)n2CC1`, the cytotoxicity at 70.5 h is -8.65%.

`COC1CCC[C@@H]2CN(Cc3csc(C)n3)C[C@H]12` (some centres undefined): the cytotoxicity at 70.5 h is -4.08%.

For `Cn1ccnc1C(=O)NC[C@@H]1OC[C@H]2CN(CC3CC3)CC[C@H]21`, the cytotoxicity at 70.5 h was -9.31%.

On to `CN(C)C(=O)COC1COC2(CCN(CC3CC3)CC2)C1` (centres undefined), for which the cytotoxicity at 70.5 h is -5.8%.

With `O=C(Nc1ccccc1)c1ccc2c(c1)C1(CCCCC1)CN2`, the cytotoxicity at 70.5 h is -2.11%.

For `CCOCCN1C[C@H](C(=O)Nc2cccnc2)[C@@H]2CCO[C@@H]2C1`, the cytotoxicity at 70.5 h is -4.15%.

On to `Cc1cccc(CN2CC[C@@H]3[C@@H]2CCN3Cc2cccs2)n1`, for which the cytotoxicity at 70.5 h is -5.52%.

As to `Cc1ccc(C(=O)N2C[C@H](N3CCOCC3)[C@@H]3OCCC[C@@H]32)cn1`, the cytotoxicity at 70.5 h is -9.11%.

As to `Cc1cccc(CN2CC[C@@H]3[C@@H]2CCN3C(=O)Cc2cccs2)n1`, the cytotoxicity at 70.5 h is -11.7%.

With `Cc1ccc(CN2CCn3c(COc4cccnc4)cnc3C2C)o1` (centres undefined), the cytotoxicity at 70.5 h was -7.88%.

Turning to `Cc1ccsc1CN1CCn2c(COc3cccnc3)cnc2C1C` (centres undefined), the cytotoxicity at 70.5 h was -9.93%.

In the case of `CC1c2ncc(COc3cccnc3)n2CCN1Cc1cnn(C)c1` (centres undefined), the cytotoxicity at 70.5 h was -9.85%.

Regarding `O=C(NCCc1cccs1)[C@]12COC[C@H]1CN(Cc1ccncc1)C2`, the cytotoxicity at 70.5 h was -9.54%.

With `c1ccc(CN2CCC3(CC2)CC(Oc2cccnc2)C3)nc1`, the cytotoxicity at 70.5 h was -12.3%.

For `COCCN1C[C@H]2CCC[C@@H](CNc3ncccn3)[C@H]2C1`, the cytotoxicity at 70.5 h was -10.7%.

As for `c1ccc(CN2Cc3[nH]nc(COc4cccnc4)c3C2)nc1`, the cytotoxicity at 70.5 h is -7.63%.

On to `Cc1ccc(CN2CC[C@H]3CO[C@H](CN4CCN(C)CC4)[C@H]3C2)o1`, for which the cytotoxicity at 70.5 h was -7.33%.

On to `CCCN1CCC(c2nc3ccc(NCc4cccnc4)cn3n2)CC1`, for which the cytotoxicity at 70.5 h was -10.3%.
